# Data: US9586961B2, “Homopiperazine derivatives as protein tyrosine kinase inhibitors and pharmaceutical use thereof” (LEO PHARMA A/S, priority 2010, dated 2017)
# Key:
# Type in all cases: biochemical
# JAK1 = target: T1, JAK1 (Homo sapiens, UniProt P23458); assay: JAK1 kinase assay (HTRF, inhibition of phosphorylation of a synthetic peptide); conditions: catalytic domain aa 850-1154, GST-tag; 7 μM ATP (Km); read-out: JAK1 kinase inhibitory activity (EC50)
# T1 construct: JAK1 (aa 850-1154) and TYK2 (aa 871-1187) are expressed with an N-terminally fused GST-tag; GST (N); purchased Carna Biosciences, Inc; host or cells: baculovirus expression system
# Method: (§1) JAK1, JAK2, JAK3 and TYK2 Kinase Assays:
# (§2) Human baculovirus-expressed JAK1, 2, 3 and TYK2 were purchased from Carna Biosciences, Inc. All four purified enzymes contain only the catalytic domain. JAK1 (aa 850-1154) and TYK2 (aa 871-1187) are expressed with an N-terminally fused GST-tag, and JAK2 and JAK3 with an N-terminally fused His-tag. Inhibition of phosphorylation of a synthetic peptide was measured in an HTRF-based assay using the TK substrate-Biotin from the CisbioHTRFKinEASE TK kit. First, 2 μl of TK solution (TK substrate-biotin in kinase buffer [1× enzymatic buffer from HTRFKinEASE TK kit, 1 mM DTT]) is added to a plate containing 1 μl prediluted compound (final assay concentration DMSO: 0.75%). Then, 5 μl kinase-ATP mix (prepared in kinase buffer) is added to the wells and the plates are incubated at RT for 20-30 min. For all four kinases a concentration of ATP that corresponded to the Km for ATP was used. The final concentrations of buffers, substrate, kinase and ATP were: JAK1: 50 mMHepes buffer pH 7.0, 0.01% BSA, 10 mM MgCl2, 1 mM DTT, 7 μM ATP, 50 nMSEB, 1 μM TK Substrate-Biotin and 5 ng JAK1; JAK2: 50 mM Hepes buffer pH 7.0, 0.01% BSA, 5 mM MgCl2, 1 mM DTT, 4 μM ATP, 1 μM TK Substrate-Biotin and 0.1 ng JAK2; JAK3: 50 mMHepes buffer pH 7.0, 0.01% BSA, 5 mM MgCl2, 1 mM DTT, 2 μM ATP, 1 μM TK Substrate-Biotin and 0.3 ng JAK3; TYK2: 50 mMHepes buffer pH 7.0, 0.01% BSA, 5 mM MgCl2, 1 mM DTT, 13 μM ATP, 50 nMSEB, 1 μM TK Substrate-Biotin and 0.8 ng TYK2. Thereafter, the kinase reaction is stopped by adding 4 μl detection mix (final concentrations: 50 mM Hepes buffer pH 7.0, 0.01% BSA, 0.8 M KF, 20 mM EDTA, 42 nM Streptavidin-XL665 and 1:400 STKAbCryptate) and the plates are incubated overnight in the dark. The HTRF signal is read using an Envision plate reader.
# JAK3 = target: T2, JAK3 (Homo sapiens, UniProt P52333); assay: JAK3 kinase assay (HTRF, inhibition of phosphorylation of a synthetic peptide); conditions: catalytic domain, His-tag; 2 μM ATP (Km); read-out: JAK3 kinase inhibitory activity (EC50)
# T2 construct: All four purified enzymes contain only the catalytic domain; His (N); purchased Carna Biosciences, Inc; host or cells: baculovirus expression system
# Method: as §1, §2
# JAK2 = target: T3, JAK2 (Homo sapiens, UniProt O60674); assay: JAK2 kinase assay (HTRF, inhibition of phosphorylation of a synthetic peptide); conditions: catalytic domain, His-tag; 4 μM ATP (Km); read-out: JAK2 kinase inhibitory activity (EC50)
# T3 construct: All four purified enzymes contain only the catalytic domain; His (N); purchased Carna Biosciences, Inc; host or cells: baculovirus expression system
# Method: as §1, §2
# T1 sequence (P23458 850-1154): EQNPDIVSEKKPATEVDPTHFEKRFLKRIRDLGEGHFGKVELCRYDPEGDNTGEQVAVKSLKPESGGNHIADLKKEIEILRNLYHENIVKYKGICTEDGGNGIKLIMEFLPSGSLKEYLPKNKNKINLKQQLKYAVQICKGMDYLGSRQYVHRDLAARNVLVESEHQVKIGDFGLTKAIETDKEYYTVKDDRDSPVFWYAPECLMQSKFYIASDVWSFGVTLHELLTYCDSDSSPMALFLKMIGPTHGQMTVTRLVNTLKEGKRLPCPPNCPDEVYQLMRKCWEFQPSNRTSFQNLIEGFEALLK
# T2 sequence (P52333 822-1111 limits assumed): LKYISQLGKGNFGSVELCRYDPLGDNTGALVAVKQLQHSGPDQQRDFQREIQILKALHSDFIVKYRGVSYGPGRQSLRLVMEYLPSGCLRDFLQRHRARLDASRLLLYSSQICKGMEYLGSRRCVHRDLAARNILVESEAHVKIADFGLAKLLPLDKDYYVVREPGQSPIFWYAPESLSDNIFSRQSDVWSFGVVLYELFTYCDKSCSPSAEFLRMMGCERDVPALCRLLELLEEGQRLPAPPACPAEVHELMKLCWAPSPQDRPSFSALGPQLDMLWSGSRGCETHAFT
# T3 sequence (O60674 849-1124 limits assumed): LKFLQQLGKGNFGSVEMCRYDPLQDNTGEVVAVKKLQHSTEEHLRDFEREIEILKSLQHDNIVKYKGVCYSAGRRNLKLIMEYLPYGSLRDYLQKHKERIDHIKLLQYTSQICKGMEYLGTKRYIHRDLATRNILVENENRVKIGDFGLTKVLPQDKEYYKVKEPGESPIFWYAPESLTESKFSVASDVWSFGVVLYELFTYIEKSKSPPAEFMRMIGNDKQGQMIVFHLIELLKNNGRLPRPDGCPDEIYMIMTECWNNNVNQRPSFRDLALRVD
EC50 (JAK1) [nM],EC50 (JAK3) [nM],EC50 (JAK2) [nM],SMILES
100 to 1000,> 1000,100 to 1000,"O=C(c1ccnnc1)N1CCN(c2ncnc3[nH]ccc23)CC2(CC2)C1 [Example 139, pyridazin-4-yl-[5-(7H-pyrrolo[2,3-d]pyrimidin-4-yl)-5,8-diazaspiro[2.6]nonan-8-yl]methanone]"
> 1000,> 1000,100 to 1000,"Cc1cnccc1C(=O)N1CCN(c2ncnc3[nH]ccc23)CC2(CC2)C1 [Example 137, (3-methyl-4-pyridyl)-[5-(7H-pyrrolo[2,3-d]pyrimidin-4-yl)-5,8-diazaspiro[2.6]nonan-8-yl]methanone]"
100 to 1000,100 to 1000,100 to 1000,"Cc1n[nH]c(CC(=O)N2CCN(c3ncnc4[nH]ccc34)CC3(CC3)C2)n1 [Example 250, 2-(3-methyl-1H-1,2,4-triazol-5-yl)-1-[5-(7H-pyrrolo[2,3-d]pyrimidin-4-yl)-5,8-diazaspiro[2.6]nonan-8-yl]ethanone]"
100 to 1000,100 to 1000,< 100,"O=C(Cc1ccccc1Cl)N1CCN(c2ncnc3[nH]ccc23)CC2(CC2)C1 [Example 173, 2-(2-chlorophenyl)-1-[5-(7H-pyrrolo[2,3-d]pyrimidin-4-yl)-5,8-diazaspiro[2.6]nonan-8-yl]ethanone]"
100 to 1000,100 to 1000,100 to 1000,"CN1CCN(CC(=O)N2CCCN(c3ncnc4[nH]ccc34)CC23CC3)C1=O [Example 83, 1-methyl-3-[2-oxo-2-[5-(7H-pyrrolo[2,3-d]pyrimidin-4-yl)-5,9-diazaspiro[2.6]nonan-9-yl]ethyl]imidazolidin-2-one]"
> 1000,100 to 1000,100 to 1000,"CCN(CCC#N)C(=O)N1CCN(c2ncnc3[nH]ccc23)CC2(CC2)C1 [Example 224, N-(2-cyanoethyl)-N-ethyl-5-(7H-pyrrolo[2,3-d]pyrimidin-4-yl)-5,8-diazaspiro[2.6]nonane-8-carboxamide]"
100 to 1000,> 1000,< 100,"Cc1ncc(CC(=O)N2CCN(c3ncnc4[nH]ccc34)CC3(CC3)C2)s1 [Example 247, 2-(2-methylthiazol-5-yl)-1-[5-(7H-pyrrolo[2,3-d]pyrimidin-4-yl)-5,8-diazaspiro[2.6]nonan-8-yl]ethanone]"
100 to 1000,100 to 1000,100 to 1000,"O=C(c1cscn1)N1CCN(c2ncnc3[nH]ccc23)CC2(CC2)C1 [Example 216, [5-(7H-pyrrolo[2,3-d]pyrimidin-4-yl)-5,8-diazaspiro[2.6]nonan-8-yl]-thiazol-4-yl-methanone]"
100 to 1000,> 1000,100 to 1000,"Cc1ncoc1C(=O)N1CCN(c2ncnc3[nH]ccc23)CC2(CC2)C1 [Example 191, (4-methyloxazol-5-yl)-[5-(7H-pyrrolo[2,3-d]pyrimidin-4-yl)-5,8-diazaspiro[2.6]nonan-8-yl]methanone]"
100 to 1000,> 1000,100 to 1000,"Cc1cc(C(=O)N2CCCN(c3ncnc4[nH]ccc34)CC23CC3)n[nH]1 [Example 149, (5-methyl-1H-pyrazol-3-yl)-[5-(7H-pyrrolo[2,3-d]pyrimidin-4-yl)-5,9-diazaspiro[2.6]nonan-9-yl]methanone]"
100 to 1000,> 1000,> 1000,"Cc1cc(C(=O)N2CCN(c3ncnc4[nH]ccc34)CC3(CC3)C2)ccn1 [Example 171, (2-methyl-4-pyridyl)-[5-(7H-pyrrolo[2,3-d]pyrimidin-4-yl)-5,8-diazaspiro[2.6]nonan-8-yl]methanone]"

# The next lines start with the molecule.
SMILES,EC50 (JAK1) [nM],EC50 (JAK3) [nM],EC50 (JAK2) [nM]
"CC(C)(C)c1ccc(CC(=O)N2CCN(c3ncnc4[nH]ccc34)CC3(CC3)C2)cc1 [Example 267, 2-(4-tert-butylphenyl)-1-[5-(7H-pyrrolo[2,3-d]pyrimidin-4-yl)-5,8-diazaspiro[2.6]nonan-8-yl]ethanone]",100 to 1000,100 to 1000,100 to 1000
"Cc1ncsc1CC(=O)N1CCN(c2ncnc3[nH]ccc23)CC2(CC2)C1 [Example 246, 2-(4-methylthiazol-5-yl)-1-[5-(7H-pyrrolo[2,3-d]pyrimidin-4-yl)-5,8-diazaspiro[2.6]nonan-8-yl]ethanone]",100 to 1000,> 1000,100 to 1000
"O=C(c1ccc(O)nc1)N1CCCN(c2ncnc3[nH]ccc23)CC12CC2 [Example 132, (6-hydroxy-3-pyridyl)-[5-(7H-pyrrolo[2,3-d]pyrimidin-4-yl)-5,9-diazaspiro[2.6]nonan-9-yl]methanone]",100 to 1000,100 to 1000,100 to 1000
"O=C(c1cncnc1)N1CCCN(c2ncnc3[nH]ccc23)CC12CC2 [Example 161, pyrimidin-5-yl-[5-(7H-pyrrolo[2,3-d]pyrimidin-4-yl)-5,9-diazaspiro[2.6]nonan-9-yl]methanone]",100 to 1000,> 1000,100 to 1000
"Cc1nnc(C(=O)N2CCCN(c3ncnc4[nH]ccc34)CC23CC3)[nH]1 [Example 257, (5-methyl-4H-1,2,4-triazol-3-yl)-[5-(7H-pyrrolo[2,3-d]pyrimidin-4-yl)-5,9-diazaspiro[2.6]nonan-9-yl]methanone]",100 to 1000,> 1000,100 to 1000
"Cc1cc(CC(=O)N2CCN(c3ncnc4[nH]ccc34)CC3(CC3)C2)n[nH]1 [Example 248, 2-(5-methyl-1H-pyrazol-3-yl)-1-[5-(7H-pyrrolo[2,3-d]pyrimidin-4-yl)-5,8-diazaspiro[2.6]nonan-8-yl]ethanone]",100 to 1000,> 1000,< 100
"O=C(c1ccon1)N1CCN(c2ncnc3[nH]ccc23)CC2(CC2)C1 [Example 152, isoxazol-3-yl-[5-(7H-pyrrolo[2,3-d]pyrimidin-4-yl)-5,8-diazaspiro[2.6]nonan-8-yl]methanone]",100 to 1000,100 to 1000,100 to 1000
"O=C(c1cn[nH]c1)N1CCN(c2ncnc3[nH]ccc23)CC2(CC2)C1 [Example 157, 1H-pyrazol-4-yl-[5-(7H-pyrrolo[2,3-d]pyrimidin-4-yl)-5,8-diazaspiro[2.6]nonan-8-yl]methanone]",100 to 1000,100 to 1000,100 to 1000
"N#Cc1ccccc1C(=O)N1CCCN(c2ncnc3[nH]ccc23)CC12CC2 [Example 162, 2-[5-(7H-pyrrolo[2,3-d]pyrimidin-4-yl)-5,9-diazaspiro[2.6]nonane-9-carbonyl]benzonitrile]",> 1000,> 1000,100 to 1000
"Cc1ccccc1C(=O)N1CCN(c2ncnc3[nH]ccc23)CC2(CC2)C1 [Example 109, o-tolyl-[5-(7H-pyrrolo[2,3-d]pyrimidin-4-yl)-5,8-diazaspiro[2.6]nonan-8-yl]methanone]",> 1000,> 1000,100 to 1000
"c1ccc(CN2CCCN(c3ncnc4[nH]ccc34)CC23CC3)cc1 [Example 280, 4-(9-benzyl-5,9-diazaspiro[2.6]nonan-5-yl)-7H-pyrrolo[2,3-d]pyrimidine]",> 1000,> 1000,100 to 1000
"N#Cc1ccc(/C=C/C(=O)N2CCN(c3ncnc4[nH]ccc34)CC3(CC3)C2)cc1 [Example 117, 4-[(E)-3-oxo-3-[5-(7H-pyrrolo[2,3-d]pyrimidin-4-yl)-5,8-diazaspiro[2.6]nonan-8-yl]prop-1-enyl]benzonitrile]",100 to 1000,–,100 to 1000
